# In US6492369B2, “Therapeutic agents for drug dependence” (Santen Pharmaceutical Co., Ltd., priority 1998, dated 2002):
# Structures can show the parent of a compound that is named as a salt.
# Assays:
# [1] = test system: Male Sprague-Dawley rats; assay: Conditioned place preference test (CPP method): potential of test compound and addicting drugs to induce psychological dependence; type: in vivo, rat
# Excerpt: Effects of 1,4-(diphenylalkyl)piperazine derivatives on the potency of induction of psychological dependence by addicting drugs were studied by using the conditioned place preference test (CPP method) according to the report of Suzuki et al. (Life Science, 57, 1277-1284 (1995)).
# Test of Potential to Induce Psychological Dependence of Test Compound and Addicting Drugs
# Male Sprague-Dawley rats, body weight: about 250 g, 5.5 weeks old, were used in groups of eight.
# An apparatus was used wherein a rectangular parallelepiped box was divided into two compartments at the center in length by a sliding partition and one compartment was made white, while the other compartment was made black.
# A test compound and addicting drugs to be used were dissolved in physiological saline.
# The solutions of the test compound (0.3 mg/ml, 1 mg/ml and 3 mg/ml solutions) were administered subcutaneously to the rats (1 ml/kg) The solutions of the addicting drugs were administered subcutaneously to morphine administration groups (2 mg/ml, 4 mg/ml and 8 mg/ml solutions of morphine hydrochloride) and intraperitonealy to cocaine administration groups (2 mg/ml, 4 mg/ml and 8 mg/ml solutions of cocaine hydrochloride) and to methamphetamine administration groups (1 mg/ml, 2 mg/ml and 4 mg/ml) (1 ml/kg respectively). Physiological saline was administered by the same method as the method of administration of each administration group (1 ml/kg respectively).
# The rats were placed in the box from which the partition had been removed. Each cumulative time the rats had spent in the white compartment and the black compartment respectively was measured for 15 minutes, and the spent time in the compartment where the rats had spent a longer time (pre-value) was determined from a difference between them. This operation was carried out once a day for three days.
# The box was divided into two compartments by the partition. The solution of the addicting drug or the solution of the test compound was administered subcutaneously to the rats. The rats were confined for 50 minutes to the compartment in which the rats had spent a shorter time in pre-conditioning. The next day, physiological saline was administered subcutaneously to the rats and, next, the rats were confined for 50 minutes to the compartment in which the rats had spent a longer time. This training was repeated three times (2×3 days).
# The partition was removed from the box, and the conditioned rats were placed in the box. Each cumulative time the rats spent in the white compartment and the black compartment respectively was measured for 15 minutes, and the spent time in the compartment where the rats had spent a longer time (post value) was determined from a difference between them.
# The cumulative time the rats had spent in the respective compartments was measured by using an infrared sensor.
# The potential to induce psychological dependence was evaluated by using CPP scores (sec.) showing a motivational effect of the conditioning drug as an index.
# The motivational effects of the addicting drugs and the test compound, which were the conditioning drugs, were determined by the following equation.
# CPP score (sec.)=post value (sec.)−pre value (sec.)
# [2] = test system: Male Sprague-Dawley rats; assay: Conditioned place preference test (CPP method): effect of test compound on potential of addicting drugs to induce psychological dependence; type: in vivo, rat; conditions: for Inhibition rate (%) of CPP score: average of eight
# Excerpt: (Life Science, 57, 1277-1284 (1995)). Effect of Test Compound on Potential of Addicting Drugs to Induce Psychological Dependence Male Sprague-Dawley rats, body weight: about 250 g, 5.5 weeks old, were used in groups of eight. An apparatus was used wherein a rectangular parallelepiped box was divided into two compartments at the center in length by a sliding partition and one compartment was made white, while the other compartment was made black. A test compound and addicting drugs to be used were dissolved in physiological saline. The solutions of the test compound (1 mg/ml and 3 mg/ml) were administered subcutaneously to the rats (1 ml/kg). […] The rats were placed in the box from which the partition had been removed. Each cumulative time the rats had spent in the white compartment and the black compartment respectively was measured for 15 minutes, and the spent time in the compartment where the rats had spent a longer time (pre value) was determined from a difference between them. This operation was carried out once a day for three days. The box was divided into two compartments by the partition. The solution of the test compound was administered to the rats, and 30 minutes later, the solution of the addicting drug was further administered to the rats. The rats were confined for 50 minutes to the compartment in which the rats had spent a shorter time in pre-conditioning. The next day, only physiological saline was administered to the rats, and next the rats were confined for 50 minutes to the compartment in which the rats had spent a longer time. This training was repeated three times (2×3 days). The partition was removed from the box, and the conditioned rats were placed in the box. Each cumulative time the rats had spent in the white compartment and the black compartment respectively was measured for 15 minutes, and the spent time in the compartment where the rats had spent a longer time (post value) was determined from a difference between them. The cumulative time the rats had spent in the respective compartments was measured by using an infrared sensor. The potential of the addicting drugs to induce psychological dependence was evaluated by using CPP scores (sec.) showing a motivational effect of the conditioning drug as an index. CPP score (sec.)=post value (sec.)−pre value (sec.) The effects of the test compound on the potential of the addicting drugs to induce psychological dependence was determined by the following equation as inhibition rates (%). Inhibition rate (%)=[(A−B)/A]×100 A: CPP score (sec.) of physiological saline administration group B: CPP score (sec.) of test compound administration group
# [3] = 2 mg/kg (morphine s.c., cocaine i.p.), average of eight
# [4] = 4 mg/kg (morphine s.c., cocaine i.p.), average of eight
# [5] = 8 mg/kg (morphine s.c., cocaine i.p.), average of eight
structure (smiles),measurement,setting,value
"CN[C@@H](C)Cc1ccccc1.Cl [Methamphetamine, methamphetamine hydrochloride]","Potential to induce psychological dependence (motivational effect, in words)",[1]; all doses tested,appetitive effects
same,CPP score,"[1]; methamphetamine 1 mg/kg i.p., average of eight",155 s
same,CPP score,"[1]; methamphetamine 2 mg/kg i.p., average of eight",224 s
same,CPP score,"[1]; methamphetamine 4 mg/kg i.p., average of eight",151 s
"COc1ccc(CCN2CCN(CCCc3ccccc3)CC2)cc1OC [Compound A, 1-[2-(3,4-dimethoxyphenyl)ethyl]-4-(3-phenylpropyl)piperazine dihydrochloride]",Inhibition rate (%) of CPP score,"[2]; Cocaine administration group (cocaine hydrochloride 4 mg/kg i.p.), Compound A 1 mg/kg s.c. 30 min before",26%
same,Inhibition rate (%) of CPP score,"[2]; Cocaine administration group (cocaine hydrochloride 4 mg/kg i.p.), Compound A 3 mg/kg s.c. 30 min before",55%
same,Inhibition rate (%) of CPP score,"[2]; Methamphetamine administration group (methamphetamine hydrochloride 2 mg/kg i.p.), Compound A 1 mg/kg s.c. 30 min before",55%
same,Inhibition rate (%) of CPP score,"[2]; Methamphetamine administration group (methamphetamine hydrochloride 2 mg/kg i.p.), Compound A 3 mg/kg s.c. 30 min before",57%
same,Inhibition rate (%) of CPP score,"[2]; Morphine administration group (morphine hydrochloride 8 mg/kg s.c.), Compound A 1 mg/kg s.c. 30 min before",38%
same,Inhibition rate (%) of CPP score,"[2]; Morphine administration group (morphine hydrochloride 8 mg/kg s.c.), Compound A 3 mg/kg s.c. 30 min before",50%
same,Effect on potential of addicting drugs to induce psychological dependence (in words),"[2]; morphine, cocaine and methamphetamine administration groups, 1 and 3 mg/kg",apparently inhibited the potential of the addicting drugs to induce psychological dependence
same,CPP score,"[1]; male, Sprague-Dawley, rat, in vivo, sc, 0.3 mg/kg, 6 days",-37 s
same,CPP score,"[1]; male, Sprague-Dawley, rat, in vivo, sc, 1 mg/kg, 6 days",-45 s
same,CPP score,"[1]; male, Sprague-Dawley, rat, in vivo, sc, 3 mg/kg, 6 days",-64 s
same,"Potential to induce psychological dependence (motivational effect, in words)","[1]; rat, in vivo",no potential to induce psychological dependence
"CN1CC[C@]23c4c5ccc(O)c4O[C@H]2[C@@H](O)C=C[C@H]3[C@H]1C5.Cl [Morphine, morphine hydrochloride]",CPP score,[1]; [3],171 s
same,CPP score,[1]; [4],187 s
same,CPP score,[1]; [5],228 s
same,"Potential to induce psychological dependence (motivational effect, in words)",[1]; all doses tested,appetitive effects
"COC(=O)[C@H]1[C@@H](OC(=O)c2ccccc2)C[C@@H]2CC[C@H]1N2C.Cl [Cocaine, cocaine hydrochloride]",CPP score,[1]; [3],141 s
same,CPP score,[1]; [4],178 s
same,CPP score,[1]; [5],259 s
same,"Potential to induce psychological dependence (motivational effect, in words)",[1]; all doses tested,appetitive effects
